Measurements taken from ChEMBL document CHEMBL4732077, “Potent and orally active purine-based fetal hemoglobin inducers for treating β-thalassemia and sickle cell disease” (Eur J Med Chem, 2021).
Blank lines part the entries; values can stand above or below the compound they belong to.

Tests used:
[1] = Induction of gamma-globin gene expression in human erythrocytes at 1.25 uM after 3 days by RT-PCR analysis relative to control; format: functional, Erythrocyte; details: time 3 day
[2] = Cytotoxicity against human erythrocytes assessed as cell viability at 1.25 uM after 3 days alamar blue assay relative to control; format: cell-based, Erythrocyte; details: time 3 day, read-out: Activity
[3] = Induction of gamma-globin gene expression in human erythrocytes at 0.83 uM after 3 days by RT-PCR analysis relative to control; format: functional, Erythrocyte; details: time 3 day
[4] = Cytotoxicity against human erythrocytes assessed as cell viability at 0.83 uM after 3 days alamar blue assay relative to control; format: cell-based, Erythrocyte; details: time 3 day, read-out: Activity
[5] = Cytotoxicity against human erythrocytes assessed as cell viability at 0.4 uM after 3 days alamar blue assay relative to control; format: cell-based, Erythrocyte; details: time 3 day, read-out: Activity
[6] = Induction of gamma-globin gene expression in human erythrocytes at 0.4 uM after 3 days by RT-PCR analysis relative to control; format: functional, Erythrocyte; details: time 3 day
[7] = Induction of gamma-globin gene expression in human erythrocytes at 10 uM after 3 days by RT-PCR analysis relative to control; format: functional, Erythrocyte; details: time 3 day
[8] = Cytotoxicity against human erythrocytes assessed as cell viability at 10 uM after 3 days alamar blue assay relative to control; format: cell-based, Erythrocyte; details: time 3 day, read-out: Activity
[9] = Induction of gamma-globin gene expression in human erythrocytes at 0.625 uM after 3 days by RT-PCR analysis relative to control; format: functional, Erythrocyte; details: time 3 day
[10] = Cytotoxicity against human erythrocytes assessed as cell viability at 0.625 uM after 3 days alamar blue assay relative to control; format: cell-based, Erythrocyte; details: time 3 day, read-out: Activity
[11] = Volume of distribution at steady state in Sprague-Dawley rat at 2 mg/kg, iv measured upto 24 hrs by LC-MS/MS analysis; format: ADME, organism-based; details: in vivo, read-out: Vdss
[12] = AUC (0 to infinity) in Sprague-Dawley rat at 2 mg/kg, iv measured upto 24 hrs by LC-MS/MS analysis; format: ADME, organism-based; parameters: route intravenous, dose 2 mg/kg, time <=24; details: in vivo
[13] = Cytotoxicity against human erythrocytes assessed as cell viability at 0.1 uM after 3 days alamar blue assay relative to control; format: cell-based, Erythrocyte; details: time 3 day, read-out: Activity
[14] = Induction of gamma-globin gene expression in human erythrocytes at 0.1 uM after 3 days by RT-PCR analysis relative to control; format: functional, Erythrocyte; details: time 3 day
[15] = Water solubility of compound at pH 7.4 after 24 hrs by LC/MS analysis; format: physicochemical; details: buffer, pH 7.4, 24 h
[16] = Half life in Sprague-Dawley rat at 2 mg/kg, iv measured upto 24 hrs by LC-MS/MS analysis; format: ADME, organism-based; details: in vivo
[17] = Clearance in Sprague-Dawley rat at 2 mg/kg, iv measured upto 24 hrs by LC-MS/MS analysis; format: ADME, organism-based; details: in vivo
[18] = Cytotoxicity against human erythrocytes assessed as cell viability at 15 uM after 3 days alamar blue assay relative to control; format: cell-based, Erythrocyte; details: time 3 day, read-out: Activity
[19] = Induction of gamma-globin gene expression in human erythrocytes at 15 uM after 3 days by RT-PCR analysis relative to control; format: functional, Erythrocyte; details: time 3 day
[20] = Induction of gamma-globin gene expression in human erythrocytes at 5 uM after 3 days by RT-PCR analysis relative to control; format: functional, Erythrocyte; details: time 3 day
[21] = Cytotoxicity against human erythrocytes assessed as cell viability at 5 uM after 3 days alamar blue assay relative to control; format: cell-based, Erythrocyte; details: time 3 day, read-out: Activity
[22] = Cytotoxicity against human erythrocytes assessed as cell viability after 3 days alamar blue assay; format: cell-based, Erythrocyte; details: time 3 day
[23] = Induction of gamma-globin gene expression in human erythrocytes at 250 uM after 3 days by RT-PCR analysis relative to control; format: functional, Erythrocyte; details: time 3 day

SMILES: CCn1cnc2c(Nc3cccc(NC(=O)C#Cc4ccc(C)cc4)c3)nc(N3CCN(CCO)CC3)nc21
fold change (FC) [1]: 4.6
viability at 72 h, 1.25 µM [2]: 58%

SMILES: CCN1CCN(c2nc(Nc3cccc(C(=O)N[C@@H]4C[C@H]4c4ccccc4)c3)c3ncn(CC)c3n2)CC1
fold change (FC) [3]: 1.3
viability at 72 h, 0.83 µM [4]: 71%

SMILES: CCn1cnc2c(Nc3cccc(NC(=O)C#Cc4ccc(C)cc4)c3)nc(OCCN3CCOCC3)nc21
viability at 72 h, 0.4 µM [5]: 78%
fold change (FC) [6]: 2.6

SMILES: CCN1CCN(c2nc(Nc3cccc(NC(=O)N4CCN(c5ccc(F)cc5)CC4)c3)c3ncn(CC)c3n2)CC1
fold change (FC) [7]: 2.2
viability at 72 h, 10 µM [8]: 8%

SMILES: CCn1cnc2c(Nc3cccc(NC(=O)C#Cc4ccc(C)cc4)c3)nc(N3CCC(N(C)C)CC3)nc21.Cl.Cl
fold change (FC) [9]: 1.7
viability at 72 h, 0.625 µM [10]: 75%

Vd [11]: 3.8 L/kg
AUC(0-inf) [12]: 610 ng·h/mL
solubility [15]: < 0.01 µg/mL
half-life [16]: 10.2 h
clearance [17]: 60.9 mL/min/kg
SMILES: CCn1cnc2c(Nc3cccc(NC(=O)C#Cc4ccc(C)cc4)c3)nc(N[C@H]3CC[C@H](O)CC3)nc21
viability at 72 h, 0.1 µM [13]: 61%
fold change (FC) [14]: 1.4

SMILES: CCN1CCN(c2nc(Nc3cccc(C(=O)Nc4ccc(-c5ccccc5)cc4)c3)c3ncn(CC)c3n2)CC1
fold change (FC) [9]: 0.84
viability at 72 h, 0.625 µM [10]: 105%

SMILES: CCn1cnc2c(Nc3cccc(NC(=O)C#Cc4ccc(C)cc4)c3)nc(N3CCC(N(C)C)C3)nc21 (configuration not stated)
fold change (FC) [1]: 1.5
viability at 72 h, 1.25 µM [2]: 53%

SMILES: CCN1CCN(c2nc(Nc3cccc(NC(=O)[C@@H]4C[C@H]4c4ccccc4)c3)c3ncn(CC)c3n2)CC1
fold change (FC) [1]: 1.1
viability at 72 h, 1.25 µM [2]: 77%

SMILES: CCn1cnc2c(Nc3cccc(NC(=O)C#Cc4ccc(C)cc4)c3)ncnc21
viability at 72 h, 15 µM [18]: 75%
fold change (FC) [19]: 4.1

SMILES: CCN1CCN(c2nc(Nc3cccc(NC(=O)/C=C/c4ccccc4)c3)c3ncn(CC)c3n2)CC1
fold change (FC) [1]: 2.3
viability at 72 h, 1.25 µM [2]: 128%

SMILES: Cc1ccc(C#CC(=O)Nc2cccc(Nc3nc(N[C@H]4CC[C@H](O)CC4)nc4scnc34)c2)cc1
fold change (FC) [7]: 0.87
viability at 72 h, 10 µM [8]: 19%

SMILES: Cc1ccc(C#CC(=O)Nc2cccc(Nc3nc(N[C@H]4CC[C@H](O)CC4)nc4ccccc34)c2)cc1
fold change (FC) [1]: 1.8
viability at 72 h, 1.25 µM [2]: 46%

SMILES: CCn1cnc2c(Nc3cccc(NC(=O)C#Cc4ccc(C)cc4)c3)nc(N3CCN(CCF)CC3)nc21.Cl.Cl
fold change (FC) [20]: 4.6
viability at 72 h, 5 µM [21]: 50%

SMILES: Cc1ccc(C#CC(=O)Nc2cccc(Nc3ncnc4oc(-c5ccccc5)nc34)c2)cc1
fold change (FC) [7]: 1.2
viability at 72 h, 10 µM [8]: 103%

SMILES: CCCC(=O)[O-].[Na+] [SODIUM BUTYRATE]
CC50 at 72 h [22]: 222 µM
fold change (FC) [23]: 1.3
